Data as given in paper PMC5030359, “Cathelicidin Antimicrobial Peptides with Reduced Activation of Toll-Like Receptor Signaling Have Potent Bactericidal Activity against Colistin-Resistant Bacteria” (mBio, 2016).
Converted amounts (≈) assume the structure as drawn. Bridge positions count the residues as written; N and C are the ends. Square brackets hold non-standard residues; d marks the D form. Peptide text beside a SMILES is read from it. * marks the point of attachment. X1 = CC[C@H](C)CCCCC(=O)*; Dab = NCC[C@H](N)C(=O)O

How the values were obtained:
[1] = test system: Enterobacter cloacae; conditions: strains with MIC of 16 µg/ml or less / strains tested
Procedure: (§1) The bacterial species tested are Klebsiella pneumoniae (K. p.), Serratia marcescens (S. m.), Enterobacter cloacae (E. cl.), Escherichia coli (E. c.), and Pseudomonas aeruginosa (P. a.). MICs were determined by the microdilution assay. […] The results are the median values of at least three independent assays.
(§2) Antimicrobial activity was determined using the broth microdilution method based on the guidelines of the Clinical and Laboratory Standards Institute (CLSI) ([39]), using cation-adjusted Mueller-Hinton broth (CAMHB) as the testing medium. Reference Gram-positive and Gram-negative bacteria were tested, including both enteric and Pseudomonas aeruginosa strains. Each MIC was determined in at least three independent assays.

[2] = test system: Escherichia coli
Procedure: as §1, §2

[3] = test system: Klebsiella pneumoniae; conditions: for # strains inhibited at 16 µg/ml peptide K. p.: strains with MIC of 16 µg/ml or less / strains tested
Procedure: as §1, §2

[4] = test system: Pseudomonas aeruginosa
Procedure: as §1, §2

[5] = test system: Serratia marcescens; conditions: strains with MIC of 16 µg/ml or less / strains tested
Procedure: as §1, §2

[6] = test system: 19 Gram-negative strains
Procedure: (A) Sequences of the cathelicidins, the numbers of bacterial strains killed, and hRBC lysis by the cathelicidins. […] The bacterial species tested are Klebsiella pneumoniae (K. p.), Serratia marcescens (S. m.), Enterobacter cloacae (E. cl.), Escherichia coli (E. c.), and Pseudomonas aeruginosa (P. a.). MICs were determined by the microdilution assay. […] The results are the median values of at least three independent assays.
We tested a panel of cathelicidins for inhibiting growth of 19 Gram-negative strains from the family Enterobacteriaceae and the nonfermentative bacteria. The species tested were Enterobacter cloacae ([2]), Escherichia coli ([5]), Klebsiella pneumoniae ([4]), Pseudomonas aeruginosa ([4]), and Serratia marcescens ([4]). All of the strains selected have been characterized for their antibiotic resistance profiles.
as §2

[7] = test system: E. faecalis
Procedure: as §2

[8] = test system: S. aureus
Procedure: as §2

[9] = test system: K. pneumoniae; experiment: Bacterial killing, colony formation (CFU); type: cell-based, Klebsiella pneumoniae; conditions: 2 µM; Fig. 5C (K. pneumoniae 59) and data not shown

| Compound | # strains inhibited at 16 µg/ml peptide E. cl. [1] | # strains inhibited at 16 µg/ml peptide E. c. [2] | # strains inhibited at 16 µg/ml peptide K. p. [3] | # strains inhibited at 16 µg/ml peptide P. a. [4] | # strains inhibited at 16 µg/ml peptide S. m. [5] | No. of strains inhibited at 16 µg/ml/total no. of strains [6] | MIC E. faecalis 29212 [7] | MIC E. faecalis 51299 [7] | MIC S. aureus 25923 [8] | MIC S. aureus 29213 [8] | fold reduction in CFU, colistin-resistant K. pneumoniae [9] | MIC K. pneumoniae 59 ([3]; carbapenem-resistant, colistin-resistant clinical isolate (ST258)) | MIC (µM) K. pneumoniae 88 ([3]; carbapenem-resistant, colistin-resistant clinical isolate (ST674), microbroth MIC (SD)) |
| --- | --- | --- | --- | --- | --- | --- | --- | --- | --- | --- | --- | --- | --- |
| CC[C@H](C)[C@H](NC(=O)[C@H](CCCCN)NC(=O)[C@H](CCC(=O)O)NC(=O)[C@H](CCCCN)NC(=O)[C@H](CO)NC(=O)[C@H](CCCCN)NC(=O)[C@H](CCCNC(=N)N)NC(=O)[C@H](Cc1ccccc1)NC(=O)[C@H](Cc1ccccc1)NC(=O)[C@H](CC(=O)O)NC(=O)CNC(=O)[C@H](CC(C)C)NC(=O)[C@@H](N)CC(C)C)C(=O)NCC(=O)N[C@@H](CCCCN)C(=O)N[C@@H](CCC(=O)O)C(=O)N[C@@H](Cc1ccccc1)C(=O)N[C@@H](CCCCN)C(=O)N[C@@H](CCCNC(=N)N)C(=O)N[C@H](C(=O)N[C@H](C(=O)N[C@@H](CCC(N)=O)C(=O)N[C@@H](CCCNC(=N)N)C(=O)N[C@H](C(=O)N[C@@H](CCCCN)C(=O)N[C@@H](CC(=O)O)C(=O)N[C@@H](Cc1ccccc1)C(=O)N[C@@H](CC(C)C)C(=O)N[C@@H](CCCNC(=N)N)C(=O)O)[C@@H](C)CC)C(C)C)[C@@H](C)CC [LL-29] (H-LLGDFFRKSKEKIGKEFKRIVQRIKDFLR-OH; N-terminus and C-terminus assumed) | 1/2 | 2/6 | 0/4 | 0/4 | 0/3 | 4/19 |  |  |  |  |  |  |  |
| CC[C@H](C)[C@H](NC(=O)[C@H](CCCCN)NC(=O)[C@H](CCC(=O)O)NC(=O)[C@H](CCCCN)NC(=O)[C@H](CO)NC(=O)[C@H](CCCCN)NC(=O)[C@H](CCCNC(=N)N)NC(=O)[C@H](Cc1ccccc1)NC(=O)[C@H](Cc1ccccc1)NC(=O)[C@H](C)NC(=O)CNC(=O)[C@H](CC(C)C)NC(=O)[C@@H](N)CC(C)C)C(=O)NCC(=O)N[C@@H](CCCCN)C(=O)N[C@@H](C)C(=O)N[C@@H](Cc1ccccc1)C(=O)N[C@@H](CCCCN)C(=O)N[C@@H](CCCNC(=N)N)C(=O)N[C@H](C(=O)N[C@H](C(=O)N[C@@H](CCC(N)=O)C(=O)N[C@@H](CCCNC(=N)N)C(=O)N[C@H](C(=O)N[C@@H](CCCCN)C(=O)N[C@@H](CC(=O)O)C(=O)N[C@@H](Cc1ccccc1)C(=O)N[C@@H](CC(C)C)C(=O)N[C@@H](CCCNC(=N)N)C(=O)O)[C@@H](C)CC)C(C)C)[C@@H](C)CC [LL-29V] (H-LLGAFFRKSKEKIGKAFKRIVQRIKDFLR-OH) | 1/2 | 3/6 | 0/4 | 0/4 | 0/3 | 11/19 |  |  |  |  |  |  |  |
| CC[C@H](C)[C@H](NC(=O)[C@@H](NC(=O)[C@@H]1CCCN1C(=O)[C@H](CO)NC(=O)[C@H](CC(C)C)NC(=O)[C@H](CCCCN)NC(=O)[C@H](CCCCN)NC(=O)[C@H](Cc1ccccc1)NC(=O)[C@H](CC(C)C)NC(=O)[C@H](CCCCN)NC(=O)[C@H](CCCCN)NC(=O)[C@H](Cc1ccccc1)NC(=O)[C@H](CCCCN)NC(=O)[C@H](CCCCN)NC(=O)[C@H](CCCNC(=N)N)NC(=O)[C@H](CC(C)C)NC(=O)[C@H](CCCNC(=N)N)NC(=O)[C@H](CCCCN)NC(=O)[C@H](Cc1ccccc1)NC(=O)[C@H](CCCNC(=N)N)NC(=O)CN)C(C)C)C(=O)N1CCC[C@H]1C(=O)N[C@@H](CC(C)C)C(=O)N[C@@H](CC(C)C)C(=O)N[C@@H](Cc1c[nH]cn1)C(=O)N[C@@H](CC(C)C)C(=O)NCC(=O)O [BMAP-27A] (H-GRFKRLRKKFKKLFKKLSPVIPLLHLG-OH; N-terminus and C-terminus assumed) | 2/2 | 6/6 | 4/4 | 4/4 | 3/3 | 19/19 | >32 µg/mL | >32 µg/mL | 16 µg/mL (≈ 4.92 µM) | 16 µg/mL (≈ 4.92 µM) |  |  |  |
| CC[C@H](C)[C@H](NC(=O)[C@H](CCCCN)NC(=O)[C@H](C)NC(=O)[C@H](CCCCN)NC(=O)[C@H](CO)NC(=O)[C@H](CCCCN)NC(=O)[C@H](CCCNC(=N)N)NC(=O)[C@H](Cc1ccccc1)NC(=O)[C@H](Cc1ccccc1)NC(=O)[C@H](C)NC(=O)CNC(=O)[C@H](CC(C)C)NC(=O)[C@@H](N)CC(C)C)C(=O)NCC(=O)N[C@@H](CCCCN)C(=O)N[C@@H](C)C(=O)N[C@@H](Cc1ccccc1)C(=O)N[C@@H](CCCCN)C(=O)N[C@@H](CCCNC(=N)N)C(=O)N[C@H](C(=O)N[C@H](C(=O)N[C@@H](CCC(N)=O)C(=O)N[C@@H](CCCNC(=N)N)C(=O)N[C@H](C(=O)N[C@@H](CCCCN)C(=O)N[C@@H](C)C(=O)N[C@@H](Cc1ccccc1)C(=O)N[C@@H](CC(C)C)C(=O)N[C@@H](CCCNC(=N)N)C(=O)O)[C@@H](C)CC)C(C)C)[C@@H](C)CC [LL-29V2] (H-LLGAFFRKSKAKIGKAFKRIVQRIKAFLR-OH) | 1/2 | 4/6 | 4/4 | 1/4 | 1/3 | 4/19 |  |  |  |  |  |  |  |
| CC[C@H](C)CCCCC(=O)N[C@@H](CCN)C(=O)N[C@H](C(=O)N[C@@H](CCN)C(=O)N[C@H]1CCNC(=O)[C@H]([C@@H](C)O)NC(=O)[C@H](CCN)NC(=O)[C@H](CCN)NC(=O)[C@H](CC(C)C)NC(=O)[C@@H](CC(C)C)NC(=O)[C@H](CCN)NC1=O)[C@@H](C)O [Colistin, colistin] (X1-[Dab]T[Dab][Dab][Dab][dL]L[Dab][Dab]T; lactam 4-C (inferred); N-terminus assumed) |  |  |  |  |  |  |  |  |  |  | 1.4 fold | 6.4 µM (≈ 7.48 µg/mL) | 6.4 µM (≈ 7.48 µg/mL) |
